Data: ChEMBL document CHEMBL4138077, “Rational design, synthesis and biological screening of triazine-triazolopyrimidine hybrids as multitarget anti-Alzheimer agents” (Eur J Med Chem, 2017)
Calls of active or inactive are those of the source. The calls are words filed in the database; no cut-off is given here.

Key:
Acetylcholinesterase [1] = target: T1, Acetylcholinesterase (Electrophorus electricus, UniProt O42275); test: Inhibition of electric eel AChE using acetylthiocholine iodide as substrate preincubated for 5 mins followed by substrate addition measured after 2 mins by spectroscopy based Ellman's method
Cholinesterase = Cholinesterase (Equus caballus, UniProt P81908); test: Inhibition of equine serum BuChE using butyrylthiocholine iodide as substrate preincubated for 5 mins followed by substrate addition measured after 2 mins by spectroscopy based Ellman's method
[2] = target: T2, Amyloid-beta precursor protein (Homo sapiens, UniProt P05067); test: Inhibition of HFIP-pretreated amyloid beta (1 to 42 residues) (unknown origin) self aggregation at 25 uM after 24 hrs by ThT-based fluorometric method
[3] = target: T2, Amyloid-beta precursor protein
Description: Inhibition of HFIP-pretreated amyloid beta (1 to 42 residues) (unknown origin) self aggregation after 24 hrs by ThT-based fluorometric method

[4] = target: T2, Amyloid-beta precursor protein; test: Inhibition of amyloid beta (1 to 42) (unknown origin) fibril formation at 25 uM after 24 hrs by uranyl acetate staining based transmission electron microscopic method
[5] = Metal chelating activity assessed as inhibition of Cu2+-induced amyloid beta (1 to 42 residues) aggregation at 50 uM after 24 hrs by thioflavin-T fluorescence assay
Acetylcholinesterase [6] = target: T1, Acetylcholinesterase; test: Mixed-type inhibition of electric eel AChE using varying levels of acetylthiocholine iodide as substrate preincubated for 15 mins followed by substrate addition by Lineweaver-Burk plot analysis
[7] = target: T2, Amyloid-beta precursor protein; test: Binding affinity to amyloid beta (1 to 42) (unknown origin) assessed as increase in alpha helix conformation at 10 uM after 12 hrs by CD spectroscopic method
[8] = target: T2, Amyloid-beta precursor protein; test: Binding affinity to amyloid beta (1 to 42) (unknown origin) assessed as decrease in beta sheet and random structure conformation at 10 uM after 12 hrs by CD spectroscopic method
[9] = Metal chelating activity of the compound assessed as formation of Zn2+-compound complex by measuring change in red shift in maximum absorption at 50 uM after 30 mins by UV-vis spectrophotometric method (reference value: […] nanometer)
[10] = (§1) Metal chelating activity of the compound assessed as formation of Cu2+-compound complex by measuring change in red shift in maximum absorption at 50 uM after 30 mins by UV-vis spectrophotometric method (reference value: […] nanometer)
[11] = Metal chelating activity of the compound assessed as formation of Fe2+-compound complex by measuring change in red shift in maximum absorption at 50 uM after 30 mins by UV-vis spectrophotometric method (reference value: […] nanometer)
[12] = Metal chelating activity assessed as inhibition of Cu2+-induced amyloid beta (1 to 42 residues) aggregation by measuring reduction in amyloid fibrils at 50 uM after 24 hrs by uranyl acetate staining based transmission electron microscopic analysis
[13] = as §1; remark: listed apart in the source
[14] = Metal chelating activity of the compound assessed as mole fraction of compound causing 1:1 stoichiometry for formation of Cu2+-compound complex at 50 uM after 30 mins by UV-vis spectrophotometric method

T1 sequence (O42275 whole entry): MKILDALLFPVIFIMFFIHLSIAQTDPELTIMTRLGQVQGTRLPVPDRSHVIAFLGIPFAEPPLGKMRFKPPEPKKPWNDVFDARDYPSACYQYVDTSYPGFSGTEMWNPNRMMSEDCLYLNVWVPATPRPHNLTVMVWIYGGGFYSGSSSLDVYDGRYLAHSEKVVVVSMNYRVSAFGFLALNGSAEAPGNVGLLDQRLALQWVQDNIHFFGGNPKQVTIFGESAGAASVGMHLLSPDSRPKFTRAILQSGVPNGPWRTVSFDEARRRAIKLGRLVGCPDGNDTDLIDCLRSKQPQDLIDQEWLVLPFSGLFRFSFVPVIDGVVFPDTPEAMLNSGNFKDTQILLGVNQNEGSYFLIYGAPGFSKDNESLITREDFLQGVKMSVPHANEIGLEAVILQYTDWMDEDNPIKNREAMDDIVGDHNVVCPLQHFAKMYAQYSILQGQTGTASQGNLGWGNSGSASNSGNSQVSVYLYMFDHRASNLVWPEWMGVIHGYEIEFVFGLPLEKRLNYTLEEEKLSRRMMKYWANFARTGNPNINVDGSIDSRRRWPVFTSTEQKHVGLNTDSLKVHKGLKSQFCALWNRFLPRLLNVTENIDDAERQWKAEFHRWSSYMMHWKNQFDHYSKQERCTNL
Sequence of Cholinesterase (P81908 whole entry, the tested form may be a part): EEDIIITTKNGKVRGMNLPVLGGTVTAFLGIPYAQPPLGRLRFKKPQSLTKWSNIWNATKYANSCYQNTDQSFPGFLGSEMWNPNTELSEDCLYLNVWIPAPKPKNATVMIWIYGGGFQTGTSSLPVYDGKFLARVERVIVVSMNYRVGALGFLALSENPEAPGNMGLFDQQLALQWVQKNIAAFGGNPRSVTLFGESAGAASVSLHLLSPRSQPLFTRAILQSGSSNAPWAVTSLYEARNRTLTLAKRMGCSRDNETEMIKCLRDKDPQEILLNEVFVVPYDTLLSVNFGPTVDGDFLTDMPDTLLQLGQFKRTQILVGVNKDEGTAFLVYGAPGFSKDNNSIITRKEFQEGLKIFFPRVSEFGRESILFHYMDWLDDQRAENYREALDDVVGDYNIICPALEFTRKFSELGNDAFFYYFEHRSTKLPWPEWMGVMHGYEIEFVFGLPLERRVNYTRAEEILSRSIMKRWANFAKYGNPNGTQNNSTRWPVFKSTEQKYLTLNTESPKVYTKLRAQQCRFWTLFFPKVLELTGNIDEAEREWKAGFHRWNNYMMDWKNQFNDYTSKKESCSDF
T2 sequence (P05067 whole entry, the tested form may be a part): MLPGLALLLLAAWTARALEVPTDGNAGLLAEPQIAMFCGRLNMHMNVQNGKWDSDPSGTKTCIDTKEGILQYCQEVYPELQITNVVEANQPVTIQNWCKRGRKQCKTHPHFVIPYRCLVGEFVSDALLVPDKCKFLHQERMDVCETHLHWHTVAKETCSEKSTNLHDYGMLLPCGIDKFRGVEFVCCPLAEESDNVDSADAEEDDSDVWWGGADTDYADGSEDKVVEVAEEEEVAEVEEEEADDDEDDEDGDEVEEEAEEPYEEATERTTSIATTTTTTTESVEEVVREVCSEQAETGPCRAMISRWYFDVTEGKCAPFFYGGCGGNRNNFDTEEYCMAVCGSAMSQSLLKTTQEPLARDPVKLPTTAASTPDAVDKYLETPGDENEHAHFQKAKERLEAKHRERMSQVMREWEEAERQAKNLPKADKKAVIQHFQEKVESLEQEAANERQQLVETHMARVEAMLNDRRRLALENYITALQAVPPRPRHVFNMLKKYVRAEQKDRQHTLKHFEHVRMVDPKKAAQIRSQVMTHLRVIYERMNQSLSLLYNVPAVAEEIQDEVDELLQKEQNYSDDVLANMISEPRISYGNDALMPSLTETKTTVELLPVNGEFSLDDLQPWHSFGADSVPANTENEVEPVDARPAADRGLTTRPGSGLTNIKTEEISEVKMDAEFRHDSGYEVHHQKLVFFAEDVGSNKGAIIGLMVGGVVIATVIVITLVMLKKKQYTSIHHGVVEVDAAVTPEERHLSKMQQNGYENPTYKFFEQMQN

Structure (SMILES) | IC50 (Acetylcholinesterase [1]) | IC50 (Cholinesterase) | inhibition [2] | IC50 [3] | further results
Cc1cc(N2CCN(c3nc(Nc4ccc(F)cc4)nc(Nc4cccc(C(F)(F)F)c4)n3)CC2)n2ncnc2n1 | 724 nM | 2490 nM | 54.7% | 18300 nM | 
Cc1cc(N2CCN(c3nc(Nc4cccc(C(F)(F)F)c4)nc(NC4CC4)n3)CC2)n2ncnc2n1 | 903 nM | 1900 nM | 44.3% |  | 
Cc1ccc(Nc2nc(Cl)nc(Nc3ccc(F)c(Cl)c3)n2)cc1 | 917 nM | 2770 nM | 62.5% | 18000 nM | 
Cc1cc(N2CCN(c3nc(Cl)nc(Nc4ccc(F)cc4)n3)CC2)n2ncnc2n1 | 115 nM | 930 nM | 64.5% | 15900 nM | 
Cc1cc(N2CCN(c3nc(Cl)nc(Nc4ccccc4F)n3)CC2)n2ncnc2n1 | 286 nM | 2230 nM | 65.8% | 13400 nM | 
Cc1ccc(Nc2nc(Nc3ccc(F)c(Cl)c3)nc(N3CCN(c4cc(C)nc5ncnn45)CC3)n2)cc1 | 859 nM | 3780 nM | 49.3% | 25000 nM | 
Cc1cc(N2CCN(c3nc(Nc4cccc(C(F)(F)F)c4)nc(Nc4ccc(F)c(Cl)c4)n3)CC2)n2ncnc2n1 | 388 nM | 2610 nM | 61.7% | 16300 nM | 
COc1ccc(Nc2nc(Cl)nc(Nc3cccc(C(F)(F)F)c3)n2)cc1 | 591 nM | 2960 nM | 67.2% | 17600 nM | 
Fc1ccc(Nc2nc(Cl)nc(Nc3cccc(C(F)(F)F)c3)n2)cc1Cl | 432 nM | 3980 nM | 46.2% |  | 
COc1cc(/C=C/C(=O)CC(=O)/C=C/c2ccc(O)c(OC)c2)ccc1O |  |  |  |  | inhibition [4]: Active; inhibition [5]: 60.3%
Cc1cc(N2CCN(c3nc(Cl)nc(Nc4cccc(C(F)(F)F)c4)n3)CC2)n2ncnc2n1 | 65 nM | 1880 nM | 75.3% | 10400 nM | Ki (Acetylcholinesterase [6]): 69 nM; inhibition [4]: Active; Activity [7]: Active; Activity [8]: Active; Activity [9]: Active; Activity [10]: 214 nm; Activity [11]: Active; inhibition [5]: 69.7%; inhibition [12]: Active; Activity [13]: 238 nm; Activity (mole fraction) [14]: > 0.9
Cc1ccc(Nc2nc(Nc3cccc(C(F)(F)F)c3)nc(N3CCN(c4cc(C)nc5ncnn45)CC3)n2)cc1 | 558 nM | 1750 nM | 22.4% |  | 
FC(F)(F)c1cccc(Nc2nc(NC3CC3)nc(N3CCNCC3)n2)c1 | 1250 nM | 3650 nM | 58.8% | 23500 nM | 
Cc1ccc(Nc2nc(Cl)nc(Nc3cccc(C(F)(F)F)c3)n2)cc1 | 672 nM | 2090 nM | 64.8% | 20700 nM | 
COc1ccc(Nc2nc(Cl)nc(N3CCN(c4cc(C)nc5ncnn45)CC3)n2)cc1 | 92 nM | 1520 nM | 68.5% | 11500 nM | Ki (Acetylcholinesterase [6]): 102 nM; inhibition [4]: Active; Activity [7]: Active; Activity [8]: Active; Activity [9]: 236 nm; Activity [11]: 234 nm; inhibition [5]: 66.6%; inhibition [12]: Active; Activity (mole fraction) [14]: 0.96
Fc1ccc(Nc2nc(Cl)nc(Nc3cccc(C(F)(F)F)c3)n2)c(F)c1 | 496 nM | 4330 nM | 65.2% | 17900 nM | 
Fc1ccc(Nc2nc(Cl)nc(Nc3cccc(C(F)(F)F)c3)n2)cc1 | 526 nM | 2450 nM | 63% | 18600 nM | 
COc1ccc(Nc2nc(Cl)nc(Nc3ccc(F)c(Cl)c3)n2)cc1 | 705 nM | 1640 nM | 60.7% | 23800 nM | 
